Here are results for 23 compounds from PubChem BioAssay AID328 (DTP/NCI, 2004).

Several values for one entry are separate records, joined by “and”; a condition that tells them apart may be missing. Equal entries are not always repeated. Toxic doses and inconclusive results are not listed.

The test system of the assay is BDF1 mice, P388 leukemia ip, median survival T/C. Put plainly: NCI In Vivo Anticancer Drug Screen. Data for tumor model P388 Leukemia (intraperitoneal) in B6D2F1 (BDF1) mice. The conditions noted are these: endpoint: median survival time, higher = longer survival. The procedure, abridged: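 Vehicle-dosed animals serve as the reference; survival of compound-dosed, tumour-implanted mice is divided by it.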

[1] abbreviates: dose: 50.0 mg/kg/injection, schedule: Q01DX009 (ip), vehicle: saline with Tween-80.
Where [2] appears, read: dose: 100.0 mg/kg/injection, schedule: Q01DX009 (ip), vehicle: saline with Tween-80.
The mark [3] stands for this setting: dose: 100.0 mg/kg/injection, schedule: Q04DX003 (ip), vehicle: saline with Tween-80.
Where [4] appears, read: dose: 200.0 mg/kg/injection, schedule: Q01DX009 (ip), vehicle: saline with Tween-80.
Where [5] appears, read: dose: 200.0 mg/kg/injection, schedule: Q04DX003 (ip), vehicle: saline with Tween-80.
The mark [6] stands for this setting: dose: 400.0 mg/kg/injection, schedule: Q01DX009 (ip), vehicle: saline with Tween-80.
Setting [7] is: dose: 50.0 mg/kg/injection, schedule: Q01DX009 (ip), vehicle: saline.
The mark [8] stands for this setting: dose: 100.0 mg/kg/injection, schedule: Q01DX009 (ip), vehicle: saline.
Where [9] appears, read: dose: 200.0 mg/kg/injection, schedule: Q01DX009 (ip), vehicle: saline.
[10] abbreviates: dose: 12.5 mg/kg/injection, schedule: Q04DX003 (ip), vehicle: saline.
Where [11] appears, read: dose: 25.0 mg/kg/injection, schedule: Q04DX003 (ip), vehicle: saline.
The mark [12] stands for this setting: dose: 50.0 mg/kg/injection, schedule: Q04DX003 (ip), vehicle: saline.
Where [13] appears, read: dose: 100.0 mg/kg/injection, schedule: Q04DX003 (ip), vehicle: saline.
Setting [14] is: dose: 200.0 mg/kg/injection, schedule: Q04DX003 (ip), vehicle: saline.
Where [15] appears, read: dose: 400.0 mg/kg/injection, schedule: Q04DX003 (ip), vehicle: saline with Tween-80.

Turning to `O=C1C=CC(=O)N1CN1CCOCC1`, the T/C (dose: 3.12 mg/kg/injection, schedule: Q01DX009 (ip), vehicle: saline) is 120 % of control; the T/C (dose: 6.25 mg/kg/injection, schedule: Q01DX009 (ip), vehicle: saline) was 104 % of control; the T/C (dose: 12.5 mg/kg/injection, schedule: Q01DX009 (ip), vehicle: saline) is 116 % of control; the T/C (dose: 18.75 mg/kg/injection, schedule: Q01DX009 (ip), vehicle: saline) was 111 % of control.
In the case of `CCCCCC(CN(C)C)C(=O)/C=C/c1ccc(Cl)c(Cl)c1` (configuration not stated), the T/C is 110 % of control (dose: 2.75 mg/kg/injection, schedule: Q01DX009 (ip), vehicle: saline); 105 % of control (dose: 4.12 mg/kg/injection, schedule: Q01DX009 (ip), vehicle: saline); 100 % of control (dose: 50.0 mg/kg/injection, schedule: Q01DX001 (ip), vehicle: saline).
For the compound `O=c1[nH]ccc2c(O)cccc12`, the T/C is, setting by setting: under setting [1], 96 % of control; (dose: 50.0 mg/kg/injection, schedule: Q04DX003 (ip), vehicle: saline with Tween-80) 100 % of control; under setting [2], 92 % of control; under setting [3], 95 % of control; under setting [4], 96 % of control; under setting [5], 91 % of control.
Consider `CCOC(=O)C1CC(=O)c2ccccc2C1` (configuration not stated), for which the T/C runs as follows: (dose: 12.5 mg/kg/injection, schedule: Q01DX009 (ip), vehicle: other) 87 % of control; (dose: 100.0 mg/kg/injection, schedule: Q01DX009 (ip), vehicle: other) 96 % of control; (dose: 200.0 mg/kg/injection, schedule: Q01DX009 (ip), vehicle: other) 110 % of control.
For `CCCCC(NC(C)=O)C(=O)O` (configuration not stated), the T/C under setting [2] was 119 % of control and the T/C under setting [6] is 113 % of control.
Turning to `CC/C(=N\NS(=O)(=O)c1ccc(C)cc1)c1ccc(OC)cc1`, the T/C was 92 % of control under setting [7], 104 % of control under setting [8] and 93 % of control under setting [9].
Regarding `C=C(CC(=O)O)C(=O)O` (tested in a mixture with another compound), the T/C (dose: 44.0 mg/kg/injection, schedule: Q01DX009 (ip), vehicle: saline) was 120 % of control.
Turning to `CC1(C)CCC23CCC4(C)C(CCC5C6(C)CCC(O)C(C)(C)C6CCC54C)C2C1OC3=O` (configuration not stated), the T/C (dose: 10.0 mg/kg/injection, schedule: Q01DX009 (ip), vehicle: Klucel (hydroxypropylcellulose) (HPC)) was 105 % of control; the T/C (dose: 20.0 mg/kg/injection, schedule: Q01DX009 (ip), vehicle: Klucel (hydroxypropylcellulose) (HPC)) is 119 % of control; the T/C (dose: 40.0 mg/kg/injection, schedule: Q01DX009 (ip), vehicle: Klucel (hydroxypropylcellulose) (HPC)) is 105 % of control.
`Nc1nc(N)c(N=O)c(Nc2ccc(Br)cc2)n1`: the T/C was 104 % of control under setting [2], 113 % of control under setting [4] and 95 % of control under setting [6].
As to `CCC(C)NCCNCCNC(C)CC` (configuration not stated), the T/C (dose: 6.25 mg/kg/injection, schedule: Q04DX003 (ip), vehicle: saline) was 95 % of control; the T/C under setting [10] is 95 % of control; the T/C under setting [11] is 104 % of control.
Take `Cc1ccc(N(OC(=O)c2ccccc2)C(C)(C)C)cc1`: the T/C by setting is: (dose: 25.0 mg/kg/injection, schedule: Q04DX002 (ip), vehicle: saline with Tween-80) 93 % of control; (dose: 50.0 mg/kg/injection, schedule: Q04DX002 (ip), vehicle: saline with Tween-80) 109 % of control; (dose: 100.0 mg/kg/injection, schedule: Q04DX002 (ip), vehicle: saline with Tween-80) 111 % of control and 113 % of control.
`CC(C)(C)OC(=O)NC(Cc1cncn1Cc1ccccc1)C(=O)NC(Cc1c[nH]c2ccccc12)C(=O)OCc1ccccc1` (configuration not stated): the T/C is 105 % of control under setting [12]; 106 % of control under setting [13]; 102 % of control under setting [14]; 100 % of control (dose: 400.0 mg/kg/injection, schedule: Q04DX003 (ip), vehicle: saline).
As to `CC(C)CCNc1ncnc2c1cnn2C`, the T/C (dose: 25.0 mg/kg/injection, schedule: Q01DX009 (ip), vehicle: saline with Tween-80) is 100 % of control; the T/C under setting [1] was 100 % of control; the T/C under setting [2] is 109 % of control.
For the compound `Cc1ccc(S(=O)(=O)Nc2ccccc2SSc2ccccc2NS(=O)(=O)c2ccc(C)cc2)cc1`, the T/C runs as follows: under setting [3], 100 % of control; under setting [5], 110 % of control; under setting [15], 110 % of control.
For the compound `CCC(C)(C)C(=O)O`, the T/C is, setting by setting: under setting [7], 100 % of control; under setting [12], 100 % of control; under setting [8], 105 % of control; under setting [3], 105 % of control; under setting [13], 104 % of control; under setting [9], 110 % of control. For the same compound, the T/C by setting is: under setting [5], 110 % of control; under setting [14], 100 % of control; under setting [15], 100 % of control.
For the compound `C[C@@H]1CC2=CC(=O)CC[C@@H]2[C@H]2CC[C@@]3(C)[C@@H](CC[C@]3(C)O)[C@@H]21`, the T/C is, setting by setting: under setting [2], 104 % of control; under setting [3], 100 % of control; under setting [4], 90 % of control.
With `O=C(Oc1ccccc1)c1cc(O)c(O)c(O)c1`, the T/C was 100 % of control and 106 % of control (dose: 50.0 mg/kg/injection, schedule: Q01DX005 (ip), vehicle: saline with Tween-80); 107 % of control and 115 % of control (dose: 100.0 mg/kg/injection, schedule: Q01DX005 (ip), vehicle: saline with Tween-80); 105 % of control (dose: 200.0 mg/kg/injection, schedule: Q01DX005 (ip), vehicle: saline with Tween-80); 154 % of control (dose: 400.0 mg/kg/injection, schedule: Q01DX005 (ip), vehicle: saline with Tween-80).
Turning to `C=C(Br)CNCCCCCC`, the T/C runs as follows: (dose: 4.68 mg/kg/injection, schedule: Q04DX003 (ip), vehicle: Klucel (hydroxypropylcellulose) (HPC)) 95 % of control; (dose: 9.37 mg/kg/injection, schedule: Q04DX003 (ip), vehicle: Klucel (hydroxypropylcellulose) (HPC)) 100 % of control; (dose: 12.5 mg/kg/injection, schedule: Q01DX009 (ip), vehicle: Klucel (hydroxypropylcellulose) (HPC)) 109 % of control; (dose: 18.75 mg/kg/injection, schedule: Q04DX003 (ip), vehicle: Klucel (hydroxypropylcellulose) (HPC)) 108 % of control; (dose: 25.0 mg/kg/injection, schedule: Q01DX009 (ip), vehicle: Klucel (hydroxypropylcellulose) (HPC)) 118 % of control; (dose: 37.5 mg/kg/injection, schedule: Q04DX003 (ip), vehicle: Klucel (hydroxypropylcellulose) (HPC)) 86 % of control. The T/C (dose: 50.0 mg/kg/injection, schedule: Q01DX009 (ip), vehicle: Klucel (hydroxypropylcellulose) (HPC)) is 113 % of control.
With `CN(C)CCCn1c(=O)c2ccccc2c2ccccc21`, the T/C (dose: 12.5 mg/kg/injection, schedule: Q01DX010 (ip), vehicle: saline) was 90 % of control; the T/C (dose: 25.0 mg/kg/injection, schedule: Q01DX010 (ip), vehicle: saline) was 90 % of control; the T/C (dose: 50.0 mg/kg/injection, schedule: Q01DX010 (ip), vehicle: saline) was 90 % of control.
As to `CCCCCCCCCCSC#N`, the T/C was 87 % of control (dose: 20.0 mg/kg/injection, schedule: Q04DX003 (ip), vehicle: saline); 91 % of control (dose: 40.0 mg/kg/injection, schedule: Q04DX003 (ip), vehicle: saline); 91 % of control (dose: 80.0 mg/kg/injection, schedule: Q04DX003 (ip), vehicle: saline).
With `COC(=O)C1(C(=O)OC)C2CC(C)=C(C)CC21` (configuration not stated), the T/C by setting is: (dose: 150.0 mg/kg/injection, schedule: Q04DX003 (ip), vehicle: saline) 95 % of control; (dose: 300.0 mg/kg/injection, schedule: Q04DX003 (ip), vehicle: saline) 95 % of control.
For the compound `c1ccc2c[n+]3cc4ccccc4cc3cc2c1`, the T/C is 95 % of control (dose: 8.75 mg/kg/injection, schedule: Q01DX009 (ip), vehicle: saline); 91 % of control under setting [10]; 100 % of control (dose: 17.5 mg/kg/injection, schedule: Q01DX009 (ip), vehicle: saline); 100 % of control under setting [11].
In the case of `CCN(CC)C(=O)COc1cc2c(O)c3c(O)c(C)c4c(c13)C(=O)C(C)(OC=CC(OC)C(C)C(OC(C)=O)C(C)C(O)C(C)C(O)C(C)C=CC=C(C)C(=O)N2)O4` (configuration not stated), the T/C under setting [7] was 109 % of control, the T/C under setting [8] is 109 % of control and the T/C under setting [9] is 123 % of control.
